# Measured values from a melting point compilation (Tetko et al.; mined from patent text by program, amines drawn as free bases though some values may be those of a salt).
row,SMILES,melting point [°C]
1,CCOC(=O)COc1c(C)c(C(=O)c2ccc(C(=O)OC)cc2)n2ccccc12,84.5
2,CCc1ccc(N/C=C/[N+](=O)[O-])c(C(=O)O)c1,190 to 191
3,O=C(O)CCCCCCCNC(=O)C(CS)Cc1ccccc1 (stereo not given),81 to 83
4,Cc1c(C(F)(F)F)[nH]c(=O)n(-c2ccc(Br)cc2F)c1=O,188 to 189
5,Cc1cccnc1C(=O)NCCNC(=O)OC(C)(C)C,81 to 82
6,COc1cc(Nc2ncc(C#N)c(-c3ccccc3)n2)cc(OC)c1OC,98
7,Oc1nc2ccccc2c(O)c1O,> 250
8,C=CCc1c(C)ccc(N2C(=O)c3ccccc3C2=O)c1OCc1ccccc1,107 to 109
9,CC(C)(C)OC(=O)N1CCCC(O)(C#Cc2cccc(Cl)c2)C1 (stereo not given),128 to 129
10,O=C1NCCc2ccc(OCCCN3CCCN(c4cccc(Cl)c4Cl)CC3)cc21,116 to 117
11,Clc1ccc(N2CCN(Cc3coc4cccnc34)CC2)cc1,128 to 129
12,CSc1ccc(C(=O)O)c([N+](=O)[O-])c1,165 to 168
13,Brc1ccc(OCc2ccccn2)cc1/C=C/c1cc(/C=C/c2ccc3cc[nH]c3c2)[nH]n1,100 to 106
14,CN1CCN(Cc2ccc(Cl)cc2Cl)C(C2(C)NCCN2)C1 (stereo not given),61 to 63
15,CCCc1c(C(=O)C(C)C)c2ccc(C(=O)OC)cc2n1Cc1ccc(Br)cc1F,110 to 112
16,COc1cc(C(=O)O)ccc1OCCCCCOc1ccc(C#N)cc1,159 to 161
17,COc1cccc2c1sn1c3ccccc3c(=O)cc21,245 to 251
18,CC(=O)OC1CCC2(C)C(=CCC3C2CCC2(C)C(n4cnc5ccccc54)=C(C=O)CC32)C1 (stereo not given),227 to 230

row,SMILES,melting point [°C]
1,CCCc1c(OCCCOc2ccc(C#N)cc2Cl)ccc(C(C)=O)c1O,96 to 97
2,COc1cc(C=O)cc(OCCCC(=O)O)c1OC,90 to 92
3,O=C(NC[C@@H]1CN2C(=O)C[C@H]2O1)C1CCCCC1 (racemic),83 to 85
4,CCOP(=O)(OCC)N1CCN(c2cc3c(cc2F)c(=O)c(C(=O)O)cn3C2CC2)CC1,192 to 193
5,O=C(NN=Cc1ccnc2ccccc12)c1ccc(Cl)cc1,233
6,O=C(c1cccnc1)C1COCOC1,91 to 100
7,CC(=O)Nc1ncc(Sc2nnnn2C)s1,208 to 210
8,O=C(Nc1ccc(S(=O)(=O)c2ccccn2)cc1)C(O)(C(F)(F)F)C(F)(F)F,199 to 200
9,CCOP(=O)(Cc1ccc(NC(=O)CCCc2cnoc2-c2ccccc2)cc1)OCC,128 to 129
10,O=C(O)CCc1cc2cc(-c3ccc(C(F)(F)F)cc3)ccc2n1S(=O)(=O)c1ccccc1,162
11,CCc1ccc(/C(Cl)=C/c2ccc(Br)cc2)cc1,75
12,COc1ccc(-c2sc3c(c2CN(C)Cc2ccccc2)c(=O)c(C(C)O)cn3Cc2ccccc2F)cc1 (stereo not given),183 to 187
13,CC1=C(N)C(C)C2CC(C)(CC3CCN(c4ccc(-n5ccnc5)cc4)CC3)OC2=C1C (stereo not given),170 to 172
14,O=C(c1ccn2c1CSC2c1cccnc1)c1cn(CCO)c2cc(-c3ccc(F)cc3)ccc12 (stereo not given),170 to 171
15,COc1cc2c(c(OC)c1)C1CCCCC1C(=O)C2 (stereo not given),130 to 131
16,O=c1ccc2cnccc2[nH]1,295 to 297
17,O=C(OCCC1CC1)c1ncn2c1[C@@H]1CCCN1C(=O)c1c(Cl)cccc1-2,163 to 164

# The next lines start with the values.
row,melting point [°C],SMILES
1,254 to 258,N#CCOc1nsc2ccc(-n3c(=O)cc(C(F)(F)F)[nH]c3=O)cc12
2,168 to 179,COc1ccc(CCN2CCC(C(O)(c3cc4ccccc4s3)c3cc4ccccc4s3)CC2)cc1
3,182 to 185,CS(=O)(=O)c1ccc(-c2cnn(-c3ccc(F)c(F)c3)c(=O)c2-c2cccc(F)c2)cc1
4,98 to 100,CS(=O)(=O)Nc1cc2occ(N(C=O)CC(=O)O)c(=O)c2cc1Oc1ccccc1
5,207 to 210,O=C1COc2cc(NCC(=O)N3CCC(Oc4ccc(Cl)cc4)CC3)ccc2N1
6,> 240,Cn1cc(C(N)=O)c(=O)c2ccc(Cl)cc21
7,173 to 174,CCCCc1nc2c(N)nc3ccc(OCc4ccccc4)cc3c2n1CCCCNC(=O)c1ccccc1
8,77 to 78,CCOc1nn(-c2c(Cl)cc(C(F)(F)F)cc2Cl)c(N)c1-c1cccc(C(F)(F)F)c1
9,135,CCN1CCc2ccc(Nc3ncc(Cl)c(NCCCC(=O)NC)n3)cc2CC1
10,110 to 112,COc1ccc(CN[C@@H]2CCCC[C@H]2NCc2ccc(OC)cc2)cc1 (relative stereo)
11,158 to 159,CC(C)(C)c1nc2cc(N3CCOCC3)c(N)cc2s1
12,110 to 111,CCC(=O)NCCC1CCc2cc(Br)c3c(c21)C=CCO3 (stereo not given)
13,44 to 59,O=CC(=O)c1ccc(OCCc2ccccc2)cc1
14,136 to 140,CC(C)(C)OC(=O)C[C@@H]1C[C@@H](COc2ccc(-c3ccc(C(=N)NC(=O)OCc4ccccc4)cc3)cc2)NC1=O
15,81 to 83,O=C(O)C(Oc1ccc(Cl)cc1)(C(F)(F)F)C(F)(F)F
16,141 to 143,C[C@@H](NC(=O)c1cnn(-c2ccc(C(F)(F)F)cc2)c1C(F)(F)F)[C@](O)(Cn1cncn1)c1ccc(F)cc1F
17,117 to 118,CC(C)=CCCC(C)C1CCC2C3CCC4CC(O)CCC4(C)C3CCC12C (stereo not given)
18,285,NC(=O)c1sc2ncnc(-c3cc(O)c4c(c3)OCC4)c2c1N

row,melting point [°C],SMILES
1,61 to 62.5,CC=CCOc1c(I)cc(C(C)O)nc1Cl (stereo not given)
2,174,COC(=O)c1cc(C(=O)c2c(C)c(OC)c3c(OCc4ccccc4)cccn23)ccc1N
3,126 to 127,CCCc1ccc2c(c1)C1(O)C(=O)c3ccccc3C1(O)O2 (stereo not given)
4,149 to 151,CC(SC(=O)c1ccccc1)C(=O)c1ccccc1NCC(=O)O (stereo not given)
5,150 to 152,CSc1ccc(/C=C2/C(C)=C(C(C)N(O)C(N)=O)c3cc(F)ccc32)cc1 (stereo not given)
6,176 to 178,CC(c1oc2ccccc2c(=O)c1-c1ccccc1)n1nc(-c2ccc3cn[nH]c3c2)c2c(N)ncnc21 (stereo not given)
7,239 to 243,O=C(N[C@@H](Cc1ccc(C(F)(F)F)cc1)[C@H](O)c1ccncc1)c1ccc(F)c2ccccc12
8,170,C[C@H](NC(=O)C[C@@H](CCO)c1ccc(F)cc1)c1ccccc1
9,253,Oc1ccc(-c2nc3ccccc3o2)cc1
10,216 to 219,Nc1ccc(S(N)(=O)=O)c2c1CCCC2
11,226 to 228,CC12CCC(C1)C1(C)Oc3ccc(C(=O)/C=C/c4cc(C(=O)O)cs4)cc3C21C (stereo not given)
12,198 to 200,COc1ccc(C)cc1NC(=O)Nc1ccc(N2CCN(C(=O)Nc3ccc(OCCO)cc3C(F)(F)F)CC2)nc1
13,288 to 290,CC(C)(C)C(=O)c1c[nH]c2ncc(-c3ccc(N4CCN(S(C)(=O)=O)CC4)cc3)nc12
14,132 to 134,COc1cc(C(C)=O)ccc1OCCN1CCC(c2noc3cc(F)ccc23)CC1
15,227 to 228,COc1ccc(OC)c2c1C(=O)c1c(C)oc(C)c1C2=O
16,189 to 190,CC(C)n1c(=O)nc(-c2ccccc2)c2cc3c(cc21)OCO3
17,108 to 110,CCCn1nc2oc(=O)cc(C)c2c1C
